What was measured:
Type in all cases: in vivo
[1] = system: houseflies; experiment: Lethal activity against houseflies (topical application); conditions: female houseflies 4 to 5 days old, topical 1 μl acetone solution on dorsal thorax, dead counted 24 hours later
Experimental: 50 female houseflies 4 to 5 days old per treatment received a topical application of 1 μl of an acetone solution of the test compound on the dorsal thorax with an Arnold micromanipulator and the number of dead flies was determined 24 hours later. The DL50 or dose in nanograms per fly necessary to kill 50% of the insects were determined and the results are reported in Table II.

[2] = system: houseflies; experiment: Knockdown activity against houseflies; conditions: female houseflies 4 days old, sprayed in Kearns and March chamber, 0.25 g/liter, 5% acetone and 95% Isopar L
Experimental: Female houseflies 4 days old were sprayed in a Kearns and March chamber at 2 ml per second with a solution of 5% of acetone and 95% of Isopar L with 50 insects being used for each dose at a concentration of 0.25 g/liter and readings were taken every 30 seconds for 10 minutes and after 15 minutes to determine the KT50 by the usual method.

[3] = system: larvae of Acanthocelides obtectus; experiment: Lethal activity against Acanthocelides obtectus; conditions: Test D repeated
[4] = system: beetles; experiment: Lethal activity against beetles (contact with film on glass); conditions: contact with film on glass from acetone solutions
Excerpt: The tests were effected by contact with a film on glass deposited by pipette of acetone solutions of different concentrations on the bottom of a glass Petrie dish with sides previously coated with talc to avoid loss of insects.

[5] = system: larvae of Spodoptera littoralis; experiment: Lethal effect against Spodoptera larvae (topical application); conditions: Spodoptera littoralis larvae 4th stage, topical 1 μl acetone solution, dead counted 48 hours later
Experimental: 1 μl of acetone solution of the test compound was applied with an Arnold micromanipulator to the dorsal thorax of 15 larvae of Spodoptera littoralis in the 4th stage of development which are about 10 days old at 24° C. and 65% relative humidity. After treatment, the larvae were placed on an artificial nutritive media and the number of dead was determined 48 hours later.

| SMILES | DL50 namograms per insects [1] [namograms per insects] | KT50 [2] [min] | DL50 in ng per insect [3] [ng per insect] | CL50 in mg/m^2 [4] [mg/m^2] | DL50 ng per insect [5] [ng per insect] |
| --- | --- | --- | --- | --- | --- |
| CC1(C)[C@H](C(=O)O[C@H](C#N)c2ccc(F)c(Oc3ccccc3)c2)[C@H]1C(Br)C(Cl)(Cl)Br (mixture of isomers) [Example 2, (S) cyano-(4-fluoro-3-phenoxy-phenyl)-methyl (1R,trans) 2,2-dimethyl-3-[1 (R,S), 2-dibromo-2,2-dichloroethyl]-cyclopropane-1-carboxylate] | 1.14 | 2.8 | 10.9 | 0.084 | 6.2 |
| CC1(C)C(C(=O)O[C@H](C#N)c2ccc(F)c(Oc3ccccc3)c2)C1(C)C [Example 1, (S) cyano-(4-fluoro-3-phenoxy-phenyl)-methyl 2,2,3,3-tetramethyl-cyclopropane-1-carboxylate] | 5.3 | 2.0 | 8.12 | 0.22 | 8.4 |
| CC1(C)[C@H](C(=O)O[C@H](C#N)c2ccc(F)c(Oc3ccccc3)c2)[C@@H]1C(Br)C(Cl)(Cl)Br (stereo partly drawn) [Example 3, (S) cyano-(4-fluoro-3-phenoxy-phenyl)-methyl (1R,cis) 2,2-dimethyl-3-[1(R,S) 2-dibromo-2,2-dichlor-ethyl]-cyclopropane-1-carboxylate] | 1.02 | 2.9 | 7.7 | 0.021 | 1.4 |
| CC1(C)[C@H](C(=O)O[C@H](C#N)c2ccc(F)c(Oc3ccccc3)c2)[C@H]1C(Br)C(Br)(Br)Br (stereo partly drawn) [Example 4, (S) cyano-(4-fluoro-3-phenoxy-phenyl)-methyl (1R,trans) 2,2-dimethyl-3-[1(R,S)2,2,2-tetrabromoethyl]-cyclopropane-1-carboxylate] | 1.04 | 2.0 | 6.7 | 0.074 | 6.5 |
| CC1(C)[C@H](C(=O)O[C@H](C#N)c2ccc(F)c(Oc3ccccc3)c2)[C@@H]1C(Br)C(Br)(Br)Br (stereo partly drawn) [Example 5, (S) cyano-(4-fluoro-3-phenoxy-phenyl)-methyl (1R,cis) 2,2-dimethyl-3-[1,(R,S) 2,2,2-tetrabromoethyl]-cyclopropane-1-carboxylate] | 0.58 | 4.8 | 16.1 | 0.037 | 1.6 |
| CC1(C)[C@H](C=C(F)F)[C@H]1C(=O)O[C@H](C#N)c1ccc(F)c(Oc2ccccc2)c1 [Example 6] | 8.9 | 1.6 | 7.1 | 0.126 | 3.4 |
| CC1(C)[C@H](C(=O)O[C@H](C#N)c2ccc(F)c(Oc3ccccc3)c2)[C@@H]1C=C(F)F [Example 7, (S) cyano-(4-fluoro-3-phenoxy-phenyl)-methyl (1R,cis) 2,2-dimethyl-3-[2,2-difluoroethenyl]-cyclopropane-1-carboxylate] | 1.9 | 1.7 | 7.4 | 0.029 | 2.2 |
| CC1(C)[C@H](C=C2CCCC2)[C@H]1C(=O)O[C@H](C#N)c1ccc(F)c(Oc2ccccc2)c1 [Example 8, (S) cyano-(4-fluoro-3-phenoxy-phenyl)-methyl (1R,trans) 2,2-dimethyl-3-cyclopentylidenemethyl-cyclopropane-1-carboxylate] | 0.98 | 6.1 | 20.1 | 0.054 | 14.9 |
| CC1(C)[C@H](C(=O)O[C@H](C#N)c2ccc(F)c(Oc3ccccc3)c2)[C@@H]1C=C1CCCC1 [Example 9, (S) cyano-(4-fluoro-3-phenoxy-phenyl)-methyl (1R,cis) 2,2-dimethyl-3-cyclopentylidenemethyl-cyclopropane-1-carboxylate] | 0.87 | 4.4 | 8.6 | 0.083 | 5.1 |
| CC1(C)[C@H](C=C2CCSC2=O)[C@H]1C(=O)O[C@H](C#N)c1ccc(F)c(Oc2ccccc2)c1 [Example 10, (S) cyano-(4-fluoro-3-phenoxy-phenyl)-methyl (1R,trans) 2,2-dimethyl-3-[(dihydro-2-oxo-3-(2H)-thienylidene)-methyl]-cyclopropane-1-carboxylate] |  | 3.5 |  |  |  |
| CC1(C)[C@H](C(=O)O[C@H](C#N)c2ccc(F)c(Oc3ccccc3)c2)[C@@H]1C=C1CCSC1=O [Example 11, (S) cyano-(4-fluoro-3-phenoxy-phenyl)-methyl (1R,cis) 2,2-dimethyl-3-[(dihydro-2-oxo-3-(2H)-thienylidene)-methyl]-cyclopropane-1-carboxylate] | 21.3 | 3.5 | 50.6 |  | 8.2 |
| CC(C)[C@H](C(=O)O[C@H](C#N)c1ccc(F)c(Oc2ccccc2)c1)c1ccc(OC(F)F)cc1 [Example 12, (S) cyano (4-fluoro-3-phenoxy-phenyl)-methyl 2 (S)-[p-difluoromethoxy-phenyl]-3-methyl-butyrate] | 4.9 | 3.6 | 22.2 | 0.23 | 44.3 |
| CC1(C)[C@H](C=C2CCC2)[C@H]1C(=O)O[C@H](C#N)c1ccc(F)c(Oc2ccccc2)c1 [Example 13, (S) cyano-(4-fluoro-3-phenoxy-phenyl)-methyl (1R,trans) 2,2-dimethyl-3-cyclobutylidene-methyl-cyclopropane-1-carboxylate] | 0.97 | 2.74 | 17.9 | 0.029 | 5.8 |
| CC1(C)[C@H](C(=O)O[C@H](C#N)c2ccc(F)c(Oc3ccccc3)c2)[C@@H]1C=C1CC1 [Example 14, (S) cyano-(4-fluoro-3-phenoxy-phenyl)-methyl (1R,cis) 2,2-dimethyl-3-cyclopropylidene-methyl-cyclopropane-1-carboxylate] | 1.44 | 3.13 | 22.7 | 0.049 | 4.25 |
| CC1(C)[C@H](C=C2CC2)[C@H]1C(=O)O[C@H](C#N)c1ccc(F)c(Oc2ccccc2)c1 [Example 15, (S) cyano-(3-phenoxy-4-fluoro-phenyl)-methyl (1R,trans) 2,2-dimethyl-3-cyclopropylidene-methyl-cyclopropane-1-carboxylate] | 2.04 | 2.85 | 31.2 | 0.137 | 4.6 |
| CC1(C)[C@H](C(=O)O[C@H](C#N)c2ccc(F)c(Oc3ccccc3)c2)[C@@H]1C=C1CCC1 [Example 16, (S) cyano-(4-fluoro-3-phenoxy-phenyl)-methyl (1R,cis) 2,2-dimethyl-3-cyclobutylidenemethyl-cyclopropane-1-carboxylate] | 0.639 | 2.89 | 12.3 | 0.018 | 4.5 |
